The source of these data is ChEMBL document CHEMBL4373709 (J Med Chem, 2019).

Data set [1] in a line: Ratio of drug level in brain to plasma of C57BL/6 mouse at 30 mg/kg, po measured after 1 hr by LC-MS/MS analysis. It is filed as ADME, organism-based.
The nature of data set [2]: Ratio of drug level in brain to plasma of Sprague-Dawley rat at 30 mg/kg, po measured after 1 hr by LC-MS/MS analysis. The format is ADME, organism-based. Conditions: brain and plasma, read-out: BPR.
Data set [3] can be described thus: Toxicity in DAT knockout C57BL/6J mouse assessed as hypotension at 10 to 100 mg/kg, po. It is filed as organism-based. Conditions: in vivo.
The nature of data set [4]: Oral bioavailability in C57BL/6 mouse at 30 mg/kg by LC-MS/MS analysis. The format is ADME, organism-based. The note with it: C57BL/6, mouse, in vivo.
Data set [5] can be described thus: AUC in Sprague-Dawley rat at 30 mg/kg, po by LC-MS/MS analysis. The note with it: in vivo. The format is ADME, organism-based.
Data set [6] is described as follows: Oral bioavailability in Sprague-Dawley rat at 30 mg/kg by LC-MS/MS analysis. The format is ADME, organism-based. Conditions: in vivo.
Data set [7] can be described thus: AUC in C57BL/6 mouse at 30 mg/kg, po by LC-MS/MS analysis. The format is ADME, organism-based. The note with it: in vivo.
The nature of data set [8]: Toxicity in DAT knockout C57BL/6J mouse assessed as hypothermia at 10 to 100 mg/kg, po. It is filed as organism-based. The note with it: in vivo.
A short description of data set [9]: Half life in Sprague-Dawley rat at 30 mg/kg, po by LC-MS/MS analysis. The format is ADME, organism-based. Conditions: in vivo.
Data set [10] is described as follows: Half life in C57BL/6 mouse at 30 mg/kg, po by LC-MS/MS analysis. The format is ADME, organism-based. The note with it: in vivo.
Data set [11] concerns the target Neurotensin receptor type 1 (Rattus norvegicus, UniProt P20789). Put plainly: Displacement of [125I]neurotensin from rat brain NTR1. On the technique in general: Displacement assays read how much labelled ligand stays bound in the presence of the test substance.

Sequence of Neurotensin receptor type 1 (P20789 whole entry): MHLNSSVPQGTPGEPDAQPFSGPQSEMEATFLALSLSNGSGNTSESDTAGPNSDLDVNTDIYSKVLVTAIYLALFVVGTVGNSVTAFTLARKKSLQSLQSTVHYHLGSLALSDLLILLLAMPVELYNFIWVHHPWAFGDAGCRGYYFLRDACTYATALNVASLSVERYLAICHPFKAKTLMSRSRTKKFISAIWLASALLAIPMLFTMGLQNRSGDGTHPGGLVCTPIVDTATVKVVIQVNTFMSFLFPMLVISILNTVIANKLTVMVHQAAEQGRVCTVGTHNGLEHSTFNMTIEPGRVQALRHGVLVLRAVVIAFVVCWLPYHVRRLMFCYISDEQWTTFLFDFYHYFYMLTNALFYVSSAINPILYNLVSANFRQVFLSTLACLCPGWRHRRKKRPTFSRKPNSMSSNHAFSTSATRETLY

The term bioavailability denotes the share of a dose that reaches the circulation, judged against a reference dose that is usually intravenous. A higher bioavailability goes with much systemic uptake. Broadly, the AUC is the area under the concentration-time curve, a measure of exposure. A high value points to high exposure. `COc1ccccc1C1CCN(c2nc(C3(F)CC3)nc3ccc(N(C)CCO)cc23)CC1.Cl`: the BPR in [1] is on record as 0.54. Moreover, the Kp at 1 h in data set [2] is 0.98. In addition, the Activity entry in data set [3] and in data set [8] was “Non-Toxic” each time. For the same compound, the bioavailability came out at 45% in data set [4] and 48% in [6]. Further, the results for the AUC in data set [5] and in data set [7] were 2693 ng·h/mL and 4824 ng·h/mL, respectively. For the same compound, the t1/2 was determined as 2.23 h in data set [9] and 5.28 h in data set [10].
The term IC50 denotes the point on the concentration scale where inhibition reaches its midpoint. Low readings indicate higher potency, high ones lower potency. In [11], `COc1cccc(OC)c1-c1cc(C(=O)NC2(C(=O)O)C3CC4CC(C3)CC2C4)nn1-c1ccnc2cc(Cl)ccc12` (stereo unspecified) [REMINERTANT] registered an IC50 of 82 nM.
